Results: patent publication US12091426B2, “Bifunctional degraders of hematopoietic progenitor kinase and therapeutic uses thereof” (Nurix Therapeutics, Inc., priority 2021, dated 2024)

Target: T1, HPK1 (Homo sapiens, UniProt Q92918)
T1 construct: A HiBiT tag was introduced by CRISPR on the N terminus of HPK1 in Jurkat cells; host or cells: Jurkat cells (ATCC TIB-152), monoclonal line with CRISPR knock-in of HiBiT at the endogenous HPK1 locus
Experiment: HPK1 Cellular HiBit Degradation Assay
Assay type: cell-based
Conditions: HiBiT HPK1 Jurkat cells, 24 hrs; for DC50: concentration at which 50% of HPK1 was remaining, read-out: DC50 Category; for Dmax: Jurkat, read-out: Dmax Category
In short: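 Jurkat cells with CRISPR N-terminal HiBiT-tagged endogenous HPK1 treated 24 h at 37 °C with 11-point, 3.16-fold dilutions (10 uM to 0.1 nM final). HiBiT lytic luminescence gives % HPK1 remaining versus DMSO, with parental cells as background. Four-parameter fit yields DC50; Dmax = 100 minus lowest % remaining.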

[1] = maximum degradation vs DMSO vehicle control

T1 sequence (Q92918 whole entry): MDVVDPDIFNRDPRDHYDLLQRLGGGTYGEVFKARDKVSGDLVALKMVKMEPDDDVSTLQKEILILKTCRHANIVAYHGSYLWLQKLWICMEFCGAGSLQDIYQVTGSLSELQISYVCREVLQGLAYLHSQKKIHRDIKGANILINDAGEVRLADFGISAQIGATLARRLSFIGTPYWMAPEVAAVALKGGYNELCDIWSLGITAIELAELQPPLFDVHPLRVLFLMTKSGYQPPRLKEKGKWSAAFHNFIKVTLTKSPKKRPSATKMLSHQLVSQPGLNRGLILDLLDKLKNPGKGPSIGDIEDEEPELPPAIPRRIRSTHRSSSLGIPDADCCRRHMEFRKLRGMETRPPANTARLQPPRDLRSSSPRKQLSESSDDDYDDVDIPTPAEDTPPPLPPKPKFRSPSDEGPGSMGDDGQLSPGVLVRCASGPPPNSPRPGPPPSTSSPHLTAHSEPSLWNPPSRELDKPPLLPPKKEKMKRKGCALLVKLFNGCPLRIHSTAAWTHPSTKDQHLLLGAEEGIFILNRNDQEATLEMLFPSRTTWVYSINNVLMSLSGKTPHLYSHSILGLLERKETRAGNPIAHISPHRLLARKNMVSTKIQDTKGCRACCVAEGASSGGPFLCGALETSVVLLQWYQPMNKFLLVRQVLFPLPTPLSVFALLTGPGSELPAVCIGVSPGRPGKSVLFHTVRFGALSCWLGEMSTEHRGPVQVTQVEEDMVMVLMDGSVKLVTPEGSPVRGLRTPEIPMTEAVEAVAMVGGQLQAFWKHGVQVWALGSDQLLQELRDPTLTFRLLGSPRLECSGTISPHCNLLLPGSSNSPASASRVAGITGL

For CC(C)n1cnc2cc(-c3ccc4c(c3)N([C@H]3C[C@@H](N5CCCCC5)C3)C(=O)C43CCN(C(=O)c4ccc(C(=O)N5CCN(c6ccc(C7CCC(=O)NC7=O)cc6)CC5)cc4)CC3)nc(Nc3ccccc3F)c21 (mixture of isomers) [Example 40, (3RS)-3-[4-(4-{4-[(6-{4-[(2-fluorophenyl)amino]-3-(propan-2-yl)-3H-imidazo[4,5-c]pyridin-6-yl}-2-oxo-1-[(1S,3S)-3-(piperidin-1-yl)cyclobutyl]-1,2-dihydrospiro[indole-3,4′-piperidin]-1′-yl)carbonyl]benzoyl}piperazin-1-yl)phenyl]piperidine-2,6-dione], which DC50 is on record?
The DC50 was 500 to 1000 nM.

What about the Dmax [1] of the same compound?
The Dmax was 50 to 70%.

CC(C)n1cnc2cc(-c3ccc4c(c3)N([C@H]3C[C@@H](N5CCCCC5)C3)C(=O)C43CCN(C(=O)c4ccc(C(=O)N5CCN(c6ccc7c(c6)C(=O)N(C6CCC(=O)NC6=O)C7=O)CC5)cc4)CC3)nc(Nc3ccccc3F)c21 (mixture of isomers) [Example 41, 2-[(3RS)-2,6-dioxopiperidin-3-yl]-5-(4-{4-[(6-{4-[(2-fluorophenyl)amino]-3-(propan-2-yl)-3H-imidazo[4,5-c]pyridin-6-yl}-2-oxo-1-[(1S,3S)-3-(piperidin-1-yl)cyclobutyl]-1,2-dihydrospiro[indole-3,4′-piperidin]-1′-yl)carbonyl]benzoyl}piperazin-1-yl)-2,3-dihydro-1H-isoindole-1,3-dione] was tested. Which DC50 did it give?
Its DC50 is 100 to 500 nM.

What about the Dmax [1] of the same compound?
The Dmax was greater than 85%.

CC(C)n1cnc2cc(-c3ccc4c(c3)N([C@H]3C[C@@H](N5CCCCC5)C3)C(=O)C43CCN(C(=O)c4ccc(C(=O)N5CCN(c6ccc7c(c6)C(=O)N(C6CCC(=O)NC6=O)C7=O)CC5)cc4)CC3)nc(Nc3ccncc3F)c21 (mixture of isomers) [Example 42, 2-[(3RS)-2,6-dioxopiperidin-3-yl]-5-(4-{4-[(6-{4-[(3-Fluoropyridin-4-yl)amino]-3-(propan-2-yl)-3H-imidazo[4,5-c]pyridin-6-yl}-2-oxo-1-[(1S,3S)-3-(piperidin-1-yl)cyclobutyl]-1,2-dihydrospiro[indole-3,4′-piperidin]-1′-yl)carbonyl]benzoyl}piperazin-1-yl)-2,3-dihydro-1H-isoindole-1,3-dione] was tested. Which DC50 did it give?
Its DC50 is 500 to 1000 nM.

And the Dmax [1]?
The Dmax was 50 to 70%.

How did the DC50 turn out when CC(C)n1cnc2cc(-c3ccc4c(c3)N([C@H]3C[C@@H](N5CCCCC5)C3)C(=O)C43CCN(C(=O)c4ccc(C(=O)NC5CCN(c6ccc7c(c6)C(=O)N(C6CCC(=O)NC6=O)C7=O)CC5)cc4)CC3)nc(NC3CC3)c21 (mixture of isomers) [Example 43, 4-({6-[4-(cyclopropylamino)-3-(propan-2-yl)-3H-imidazo[4,5-c]pyridin-6-yl]-2-oxo-1-[(1S,3S)-3-(piperidin-1-yl)cyclobutyl]-1,2-dihydrospiro[indole-3,4′-piperidin]-1′-yl}carbonyl)-N-(1-{2-[(3RS)-2,6-dioxopiperidin-3-yl]-1,3-dioxo-2,3-dihydro-1H-isoindol-5-yl}piperidin-4-yl)benzamide] was run?
Its DC50 is 500 to 1000 nM.

And the Dmax [1]?
The Dmax was 50 to 70%.

CC(C)n1cnc2cc(-c3ccc4c(c3)N([C@H]3C[C@@H](N5CCCCC5)C3)C(=O)C43CCN(C(=O)c4ccc(C(=O)NC5CCN(c6ccc7c(c6)C(=O)N(C6CCC(=O)NC6=O)C7=O)CC5)cc4)CC3)nc(NC3CC3)c21 (mixture of isomers) [Example 44] was tested. Which DC50 did it give?
Its DC50 is 500 to 1000 nM.

What about the “Dmax Category” value [1] of the same compound?
Its value is “B (B: >70%-<85%)”.

Which DC50 does the source give for CC(C)n1cnc2cc(-c3ccc4c(c3)N([C@H]3C[C@@H](N5CCCCC5)C3)C(=O)C43CCN(C(=O)c4ccc(C(=O)N5CCN(c6ccc7c(c6)C(=O)N(C6CCC(=O)NC6=O)C7=O)CC5)nc4)CC3)nc(Nc3ccccc3F)c21 (mixture of isomers) [Example 45, 2-[(3RS)-2,6-dioxopiperidin-3-yl]-5-(4-{5-[(6-{4-[(2-fluorophenyl)amino]-3-(propan-2-yl)-3H-imidazo[4,5-c]pyridin-6-yl}-2-oxo-1-[(1S,3S)-3-(piperidin-1-yl)cyclobutyl]-1,2-dihydrospiro[indole-3,4′-piperidin]-1′-yl)carbonyl]pyridine-2-carbonyl}piperazin-1-yl)-2,3-dihydro-1H-isoindole-1,3-dione] here?
The DC50 was 100 to 500 nM.

What about the Dmax [1] of the same compound?
The Dmax was 70 to 85%.

CC(C)n1cnc2cc(-c3ccc4c(c3)N([C@H]3C[C@@H](N5CCCCC5)C3)C(=O)C43CCN(C(=O)C4CCN(C[C@H]5CC[C@H](C(=O)N6CCc7cc(C8CCC(=O)NC8=O)ccc7C6)CC5)CC4)CC3)nc(Nc3ccccc3F)c21 (mixture of isomers) [Example 46] was tested. Which DC50 did it give?
The DC50 was 100 to 500 nM.

What about the Dmax [1] of the same compound?
The Dmax was greater than 85%.

How did the DC50 turn out when CC(C)n1cnc2cc(-c3ccc4c(c3)N([C@H]3C[C@@H](N5CCCCC5)C3)C(=O)C43CCN(C(=O)C4CCN(C(=O)[C@@H]5CCN(c6ccc(C7CCC(=O)NC7=O)cn6)C5)CC4)CC3)nc(Nc3ccccc3F)c21 (mixture of isomers) [Example 47, (3RS)-3-{6-[(3R)-3-{4-[(6-{4-[(2-fluorophenyl)amino]-3-(propan-2-yl)-3H-imidazo[4,5-c]pyridin-6-yl}-2-oxo-1-[(1S,3S)-3-(piperidin-1-yl)cyclobutyl]-1,2-dihydrospiro[indole-3,4′-piperidin]-1′-yl)carbonyl]piperidine-1-carbonyl}pyrrolidin-1-yl]pyridin-3-yl}piperidine-2,6-dione] was run?
Its DC50 is 100 to 500 nM.

What about the Dmax [1] of the same compound?
Its Dmax is 50 to 70%.

Which DC50 does the source give for CC(C)n1cnc2cc(-c3ccc4c(c3)N([C@H]3C[C@@H](N5CCCCC5)C3)C(=O)C43CCN(C(=O)C4CCN(C(=O)[C@H]5CC[C@H](C(=O)N6CCc7ccc(C8CCC(=O)NC8=O)cc7C6)CC5)CC4)CC3)nc(Nc3ccccc3F)c21 (mixture of isomers) [Example 50, (3RS)-3-{2-[(1R,4R)-4-{4-[(6-{4-[(2-fluorophenyl)amino]-3-(propan-2-yl)-3H-imidazo[4,5-c]pyridin-6-yl}-2-oxo-1-[(1S,3S)-3-(piperidin-1-yl)cyclobutyl]-1,2-dihydrospiro[indole-3,4′-piperidin]-1′-yl)carbonyl]piperidine-1-carbonyl}cyclohexanecarbonyl]-1,2,3,4-tetrahydroisoquinolin-7-yl}piperidine-2,6-dione] here?
Its DC50 is less than 100 nM.

And the Dmax [1]?
The Dmax was 70 to 85%.

CC(C)n1cnc2cc(-c3ccc4c(c3)N([C@H]3C[C@@H](N5CCCCC5)C3)C(=O)C43CCN(C(=O)C4CCN(C(=O)[C@H]5CC[C@H](C(=O)N6CCCc7cc(C8CCC(=O)NC8=O)ccc76)CC5)CC4)CC3)nc(Nc3ccccc3F)c21 (mixture of isomers) [Example 51, (3RS)-3-{1-[(1R,4R)-4-{4-[(6-{4-[(2-fluorophenyl)amino]-3-(propan-2-yl)-3H-imidazo[4,5-c]pyridin-6-yl}-2-oxo-1-[(1S,3S)-3-(piperidin-1-yl)cyclobutyl]-1,2-dihydrospiro[indole-3,4′-piperidin]-1′-yl)carbonyl]piperidine-1-carbonyl}cyclohexanecarbonyl]-1,2,3,4-tetrahydroquinolin-6-yl}piperidine-2,6-dione] was tested. Which DC50 did it give?
Its DC50 is less than 100 nM.

What about the Dmax [1] of the same compound?
The Dmax was 70 to 85%.

With CC(C)n1cnc2cc(-c3ccc4c(c3)N([C@H]3C[C@@H](N5CCCCC5)C3)C(=O)C43CCN(C(=O)C4CCN(C(=O)[C@H]5CC[C@H](Nc6cc(C7CCC(=O)NC7=O)ccn6)CC5)CC4)CC3)nc(Nc3ccccc3F)c21 (mixture of isomers) [Example 52, (3RS)-3-(2-{[(1R,4R)-4-{4-[(6-{4-[(2-fluorophenyl)amino]-3-(propan-2-yl)-3H-imidazo[4,5-c]pyridin-6-yl}-2-oxo-1-[(1S,3S)-3-(piperidin-1-yl)cyclobutyl]-1,2-dihydrospiro[indole-3,4′-piperidin]-1′-yl)carbonyl]piperidine-1-carbonyl}cyclohexyl]amino}pyridin-4-yl)piperidine-2,6-dione] as the compound, how does the DC50 read?
The DC50 was 500 to 1000 nM.

And the Dmax [1]?
Its Dmax is 50 to 70%.

For CC(C)n1cnc2cc(-c3ccc4c(c3)N([C@H]3C[C@@H](N5CCCCC5)C3)C(=O)C43CCN(C(=O)C4CCN(C(=O)[C@H]5CC[C@H](Nc6ccc(C7CCC(=O)NC7=O)cc6)CC5)CC4)CC3)nc(NC3CC3)c21 (mixture of isomers) [Example 53, (3RS)-3-(4-{[(1R,4R)-4-[4-({6-[4-(cyclopropylamino)-3-(propan-2-yl)-3H-imidazo[4,5-c]pyridin-6-yl]-2-oxo-1-[(1S,3S)-3-(piperidin-1-yl)cyclobutyl]-1,2-dihydrospiro[indole-3,4′-piperidin]-1′-yl}carbonyl)piperidine-1-carbonyl]cyclohexyl]amino}phenyl)piperidine-2,6-dione], which DC50 is on record?
Its DC50 is 100 to 500 nM.

What about the Dmax [1] of the same compound?
The Dmax was 50 to 70%.

What does the source list for CC(C)n1cnc2cc(-c3ccc4c(c3)N([C@H]3C[C@@H](N5CCCCC5)C3)C(=O)C43CCN(C(=O)C4CCN(C(=O)[C@H]5CC[C@H](Nc6ccc(C7CCC(=O)NC7=O)cc6)CC5)CC4)CC3)nc(Nc3ccccc3F)c21 (mixture of isomers) [Example 54, (3RS)-3-(4-{[(1R,4R)-4-{4-[(6-{4-[(2-fluorophenyl)amino]-3-(propan-2-yl)-3H-imidazo[4,5-c]pyridin-6-yl}-2-oxo-1-[(1S,3S)-3-(piperidin-1-yl)cyclobutyl]-1,2-dihydrospiro[indole-3,4′-piperidin]-1′-yl)carbonyl]piperidine-1-carbonyl}cyclohexyl]amino}phenyl)piperidine-2,6-dione]?
DC50: < 100 nM; Dmax [1]: 70 to 85%

Which results are given for CC(C)n1cnc2cc(-c3ccc4c(c3)N([C@H]3C[C@@H](N5CCCCC5)C3)C(=O)C43CCN(C(=O)C4CCN(C(=O)[C@H]5CC[C@H](Nc6ccc(C7CCC(=O)NC7=O)cc6)CC5)CC4)CC3)nc(Nc3ccncc3F)c21 (mixture of isomers) [Example 55, (3RS)-3-(4-{[(1R,4R)-4-{4-[(6-{4-[(3-Fluoropyridin-4-yl)amino]-3-(propan-2-yl)-3H-imidazo[4,5-c]pyridin-6-yl}-2-oxo-1-[(1S,3S)-3-(piperidin-1-yl)cyclobutyl]-1,2-dihydrospiro[indole-3,4′-piperidin]-1′-yl)carbonyl]piperidine-1-carbonyl}cyclohexyl]amino}phenyl)piperidine-2,6-dione]?
DC50: 100 to 500 nM; Dmax [1]: 50 to 70%
